How the values were obtained:
[1] = tested on: ZDF rats; assay: plasma glucose in male Zucker Diabetic Fatty rats, daily oral dosing (study 338); type: in vivo; settings: ZDF rats; after 3 weeks; groups receiving 0.3, 1.0 and 3.0 mg kg^−1 (p<0.05, <0.01 and <0.01)
[2] = tested on: cats with experimental diabetes; settings: subcutaneous injection of a suspension in olive oil; Lukens et al. 1943, 1961; cited from earlier work

Row | SMILES | plasma glucose levels compared to vehicle control [1] | hyperglycemia in diabetic cats [2]
1 | OC[C@H]1O[C@@H](c2ccc(Cl)c(Cc3ccc(OCCOC4CC4)cc3)c2)[C@H](O)[C@@H](O)[C@@H]1O [EGT0001474, bis-proline complex of (2S,3R,4R,5S,6R)-2-(4-chloro-3-(4-(2-cyclopropoxyethoxy)benzyl)phenyl)-6-(hydroxymethyl)tetrahydro-2H-pyran-3,4,5-triol] | significantly lower | –
2 | O=C(CCc1ccc(O)cc1)c1c(O)cc(O)cc1O[C@@H]1O[C@H](CO)[C@@H](O)[C@H](O)[C@H]1O [phlorizin] | – | dramatic reduction of hyperglycemia

Source: US12274689B2, “Compound for the management of feline diabetes” (INCREVET, INC., priority 2019, dated 2025)
